Data reported in patent US8637558B2 (Industry-Academic Cooperation Foundation, Chosun University, priority 2008, dated 2014).

Biological target: 15-PGDH (Homo sapiens (Human), UniProt P15428)
Experiment: Assay for the activities of 15-PGDH inhibitors (formation of NADH at 340 nm)
Format: biochemical
Details: purified 15-PGDH enzyme, 21 μM PGE2, 0.25 mM NAD+, pH 7.5; concentration inhibiting 50% of 15-PGDH activity
Description: <1-1> Expression and Purification of 15-PGDH
A 15-PGDH cDNA plasmid containing BamHI and EcoRI sites of the pGES-2T expression vector was used to transform Escherichia coli BL-21 lysS in accordance with the ordinarily used in the art. The transformed cells were grown in 500 mL LB medium containing 50 μg/mL ampicillin at 37° C. while being stirred at 220 rpm until the OD600 reached 0.6. Isopropyl β-D-thiogalactoside (1 mM) was added and the cells were allowed to grow for 12 hours at 25° C. Then, the pellets were harvested by centrifugation at 4000×g for 30 minutes at 4° C. The cell pallets were resuspended in 20 mL cell lysis buffer (1×PBS buffer (pH 7.4) containing 1 mM EDTA and 0.1 mM DTT) and sonicated (14×10 s at 4° C.). The disrupted cells were centrifuged at 4000×g for 20 minutes at 4° C. The supernatant was loaded slowly on a glutathione-sepharose 4B column, which was equilibrated at 4° C. with a cell lysis buffer (1×PBS buffer (pH 7.4) containing 1 mM EDTA and 0.1 mM DTT). The column was washed with the lysis buffer until OD280 reached below 0.005. Then, 15-PGDH was eluted from the glutathione-sepharose 4B column at room temperature for 5 minutes by using the elution buffer (50 mM Tris-HCl (pH 8.0) containing 10 mM reduced glutathione, 1 mM EDTA and 0.1 mM DTT). The concentration and the purity of the purified enzyme were determined by SDS-PAGE.
<1-2> Assay for the Activities of 15-PGDH Inhibitors
The absorbance of the reaction mixture was recorded at 340 nm so that the activities of the derivatives according to the present invention as 15-PGDH inhibitors were determined from a standard curve prepared from the absorbance of various concentrations of NADH at 340 nm.

15-PGDH, sequence (P15428 whole entry): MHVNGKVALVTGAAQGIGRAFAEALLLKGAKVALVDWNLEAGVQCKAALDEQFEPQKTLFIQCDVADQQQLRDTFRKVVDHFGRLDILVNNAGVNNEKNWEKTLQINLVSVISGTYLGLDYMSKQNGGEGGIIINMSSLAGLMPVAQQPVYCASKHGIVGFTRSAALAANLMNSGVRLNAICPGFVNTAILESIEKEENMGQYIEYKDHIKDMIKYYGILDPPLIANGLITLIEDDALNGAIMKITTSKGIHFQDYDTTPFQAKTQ

SMILES	IC50 [nM]
O=C1NC(=O)/C(=C/c2cccc(OCCC3CCCC3)c2Cl)S1 [Derivative 107, 5-[2-chloro-3-(2-cyclopentylethoxy)benzylidene]-1,3-thiazolidine-2,4-dione]	154
O=C1NC(=O)/C(=C/c2ccc(OCCC3CCCC3)c(Cl)c2)S1 [Derivative 108, 5-[3-chloro-4-(2-cyclopentylethoxy)benzylidene]-1,3-thiazolidine-2,4-dione]	99.3
O=C1NC(=O)/C(=C/c2cccc(OCc3ccc([N+](=O)[O-])cc3)c2Cl)S1 [Derivative 109, 5-(2-chloro-3-(4-nitrobenzyloxy)benzylidene)thiazolidine-2,4-dione]	11700
O=C1NC(=O)/C(=C/c2ccc(OCC3CCC(C(=O)O)CC3)cc2)S1 (centres unmarked) [Derivative 111, 4-({4-[(Z)-(2,4-dioxo-1,3-thiazolidin-5-ylidene)methyl]phenoxy}methyl)cyclohexane carboxylic acid]	9330
O=C1NC(=O)C(Cc2ccc(OCCC3CCCCC3)cc2)S1 (centres unmarked) [Derivative 113, 5-(4-(2-cyclohexylethoxy)benzyl)thiazolidine-2,4-dione]	977
O=C1NC(=O)C(Cc2ccc(OCC3CCCC3)cc2)S1 (centres unmarked) [Derivative 115, 5-(4-(cyclopentylmethoxy)benzyl)thiazolidine-2,4-dione]	854
O=C1NC(=O)C(Cc2ccc(OCc3ccccc3)cc2)S1 (centres unmarked) [Derivative 116, 5-(4-(benzyloxy)benzyl)thiazolidine-2,4-dione]	5250
O=C1NC(=O)C(Cc2ccc(OCCN3CCS(=O)(=O)CC3)cc2)S1 (centres unmarked) [Derivative 119, 5-(4-(2-thiomorpholine-1,1-dioxideethoxy)benzyl)-2,4-thiazolidinedione]	5210
O=C1NC(=O)C(Cc2ccc(OCCC3CCCCC3)c(Cl)c2)S1 (centres unmarked) [Derivative 120, 5-(3-chloro-4-(2-cyclohexylethoxy)benzyl)thiazolidine-2,4-dione]	173
Cc1cc(CC2SC(=O)NC2=O)ccc1OCCC1CCCCC1 (centres unmarked) [Derivative 121, 5-(4-(2-cyclohexylethoxy)-3-methylbenzyl)thiazolidine-2,4-dione]	397
O=C1NC(=O)C(Cc2ccc(OCC3CCCC3)cc2)S1 (centres unmarked) [Derivative 123, 5-(4-(cyclopentylmethoxy)benzyl)thiazolidine-2,4-dione]	205
O=C1NC(=O)C(Cc2ccc(OCc3ccc(-c4ccccc4)cc3)cc2)S1 (centres unmarked) [Derivative 129, 5-(4-(biphenyl-4-ylmethoxy)benzyl)thiazolidine-2,4-dione]	1080
O=C1NC(=O)C(Cc2ccc(OCCC3CCCC3)cc2)S1 (centres unmarked) [Derivative 130, 5-(4-(2-cyclopentylethoxy)benzyl)thiazolidine-2,4-dione]	777

The remaining lines, values ahead:

IC50 [nM]	SMILES
233	O=C1NC(=O)/C(=C/c2cccc(OCCOC3CCCCC3)c2Cl)S1 [Derivative 110, 5-{2-chloro-3-[2-(cyclohexyloxy)ethoxy]benzylidene}-1,3-thiazolidine-2,4-dione]
4060	O=C1NC(=O)C(Cc2ccc(OCC3CCCCC3)cc2)S1 (centres unmarked) [Derivative 114, 5-(4-(cyclohexylmethoxy)benzyl)thiazolidine-2,4-dione]
2210	O=C1NC(=O)C(Cc2ccc(OCCC3CCCC3)cc2)S1 (centres unmarked) [Derivative 118, 5-(4-(2-cyclopentylethoxy)benzyl)thiazolidine-2,4-dione]
143	O=C1NC(=O)C(Cc2ccc(OCCCC3CCCCC3)c(Cl)c2)S1 (centres unmarked) [Derivative 122, 5-(3-chloro-4-(cyclohexylpropoxy)benzyl)thiazolidine-2,4-dione]
1260	O=C1NC(=O)C(Cc2ccc(OCc3ccccc3)cc2)S1 (centres unmarked) [Derivative 124, 5-(4-(benzyloxy)benzyl)thiazolidine-2,4-dione]
1390	O=C1NC(=O)C(Cc2ccc(OCCN3CCS(=O)(=O)CC3)cc2)S1 (centres unmarked) [Derivative 126, 5-(4-(2-thiomorpholine-1,1-Dioxideethoxy)benzyl)-2,4-thiazolidinedione]
158	O=C1NC(=O)C(Cc2ccc(OCCC3CCCCC3)cc2Cl)S1 (centres unmarked) [Derivative 127, 5-(2-chloro-4-(2-cyclohexylethoxy)benzyl)thiazolidine-2,4-dione]
